From ChEMBL document CHEMBL5316290, “Targeted Protein Degradation Induced by HEMTACs Based on HSP90” (J Med Chem, 2023)
Calls of active or inactive are those of the source. No cut-off for these calls is given here.

Assays:
[1] = test system: A549; experiment: Cytotoxicity against human A549 cells assessed as inhibition of cell growth incubated for 72 hrs by CCK-8 assay; assay type: functional, cell-based; settings: A549, 72 h
[2] = test system: HFF-1; experiment: Cytotoxicity against human HFF-1 cells assessed as reduction of cell viability incubated for 72 hrs by CCK-8 assay; assay type: toxicity, cell-based; settings: hff-1, 72 h
[3] = test system: A-375; experiment: Cytotoxicity against human A-375 cells assessed as inhibition of cell growth incubated for 72 hrs by CCK-8 assay; assay type: functional, cell-based; settings: A-375, 72 h
[4] = target: Heat shock protein HSP 90-alpha (Homo sapiens, UniProt P07900); experiment: Binding affinity to CM5 sensor chip immobilized human HSP90alpha assessed as dissociation constant by SPR analysis
[5] = test system: B16-F10; experiment: Cytotoxicity against mouse B16-F10 cells assessed as inhibition of cell growth incubated for 72 hrs by CCK-8 assay; assay type: functional, cell-based; settings: B16-F10, 72 h
[6] = target: HSP90/Cyclin-dependent kinase 4 (Mus musculus, UniProt P07901+P11499+P30285); experiment: HEMTAC activity at HSP90/CDK4 in mouse B16-F10 cells assessed as induction of CDK4 degradation incubated for 24 hrs by Western blot analysis; assay type: cell-based
[7] = test system: MDA-MB-231; experiment: Cytotoxicity against human MDA-MB-231 cells assessed as inhibition of cell growth incubated for 72 hrs by CCK-8 assay; assay type: functional, cell-based; settings: MDA-MB-231, 72 h
[8] = test system: HepG2; experiment: Cytotoxicity against human HepG2 cells assessed as inhibition of cell growth incubated for 72 hrs by CCK-8 assay; assay type: functional, cell-based; settings: HepG2, 72 h
[9] = target: HSP90/Cyclin-dependent kinase 6 (Mus musculus, UniProt P07901+P11499+Q64261); experiment: HEMTAC activity at HSP90/CDK6 in mouse B16-F10 cells assessed as induction of […] degradation incubated for 24 hrs by Western blot analysis; assay type: cell-based
[10] = test system: B16-F10; experiment: Induction of cell cycle arrest in mouse B16-F10 cells assessed as accumulation of cells at S phase at 125 nM incubated for 24 hrs by RNase/PI staining based flow cytometry analysis (reference value: 12.45%); assay type: functional
[11] = Toxicity in C57BL/6J mouse implanted with mouse B16-F10 cells at 20 mg/kg, ip administered once daily for 2 weeks and measured every 2 days; assay type: organism-based; settings: in vivo, 336 h
[12] = test system: B16-F10; experiment: Induction of apoptosis in mouse B16-F10 cells assessed as dead cells at 250 nM incubated for 48 hrs by Annexin V-FITC/PI staining based flow cytometry analysis (reference value: 1.75%); assay type: functional
[13] = test system: B16-F10; experiment: Induction of cell cycle arrest in mouse B16-F10 cells assessed as accumulation of cells at G2 phase at 125 nM incubated for 24 hrs by RNase/PI staining based flow cytometry analysis (reference value: 16.13%); assay type: functional
[14] = test system: B16-F10; experiment: Induction of apoptosis in mouse B16-F10 cells assessed as live cells at 125 nM incubated for 48 hrs by Annexin V-FITC/PI staining based flow cytometry analysis (reference value: 92.85 %); assay type: functional
[15] = test system: B16-F10; experiment: Induction of apoptosis in mouse B16-F10 cells assessed as live cells at 250 nM incubated for 48 hrs by Annexin V-FITC/PI staining based flow cytometry analysis (reference value: 92.85 %); assay type: functional
[16] = test system: B16-F10; experiment: Induction of cell cycle arrest in mouse B16-F10 cells assessed as accumulation of cells at G1 phase at 125 nM incubated for 24 hrs by RNase/PI staining based flow cytometry analysis (reference value: 68.89%); assay type: functional
[17] = test system: B16-F10; experiment: Induction of cell cycle arrest in mouse B16-F10 cells assessed as accumulation of cells at G2 phase at 250 nM incubated for 24 hrs by RNase/PI staining based flow cytometry analysis (reference value: 16.13%); assay type: functional
[18] = test system: B16-F10; experiment: Induction of apoptosis in mouse B16-F10 cells assessed as late apoptotic cells at 250 nM incubated for 48 hrs by Annexin V-FITC/PI staining based flow cytometry analysis (reference value: 1.97%); assay type: functional
[19] = test system: B16-F10; experiment: Induction of apoptosis in mouse B16-F10 cells assessed as dead cells at 125 nM incubated for 48 hrs by Annexin V-FITC/PI staining based flow cytometry analysis (reference value: 1.75%); assay type: functional
[20] = test system: B16-F10; experiment: Induction of apoptosis in mouse B16-F10 cells assessed as early apoptotic cells at 250 nM incubated for 48 hrs by Annexin V-FITC/PI staining based flow cytometry analysis (reference value: 3.42%); assay type: functional
[21] = test system: B16-F10; experiment: Induction of cell cycle arrest in mouse B16-F10 cells assessed as accumulation of cells at S phase at 250 nM incubated for 24 hrs by RNase/PI staining based flow cytometry analysis (reference value: 12.45%); assay type: functional
[22] = test system: B16-F10; experiment: Induction of apoptosis in mouse B16-F10 cells assessed as early apoptotic cells at 125 nM incubated for 48 hrs by Annexin V-FITC/PI staining based flow cytometry analysis (reference value: 3.42%); assay type: functional
[23] = Acute toxicity in zebra fish embryos incubated for 72 hrs; set-up: species or system Danio rerio; settings: zebrafish
[24] = test system: B16-F10; experiment: Induction of apoptosis in mouse B16-F10 cells assessed as late apoptotic cells at 125 nM incubated for 48 hrs by Annexin V-FITC/PI staining based flow cytometry analysis (reference value: 1.97%); assay type: functional
[25] = test system: B16-F10; experiment: Induction of cell cycle arrest in mouse B16-F10 cells assessed as accumulation of cells at G1 phase at 250 nM incubated for 24 hrs by RNase/PI staining based flow cytometry analysis (reference value: 68.89%); assay type: functional
[26] = target: HSP90/Cyclin-dependent kinase 6 (Mus musculus) (UniProt P07901+Q64261+P11499); experiment: HEMTAC activity at HSP90/CDK6 in mouse B16-F10 cells assessed as induction of […] degradation at 0.01 to 1 uM measured after 24 hrs by Western blot analysis; assay type: cell-based; settings: dose 0.01-1 µM
[27] = target: HSP90/Cyclin-dependent kinase 4 (Mus musculus) (UniProt P30285+P07901+P11499); experiment: HEMTAC activity at HSP90/CDK4 in mouse B16-F10 cells assessed as induction of CDK4 degradation at 0.01 to 1 uM measured after 24 hrs by Western blot analysis; assay type: cell-based; settings: dose 0.01-1 µM
[28] = target: Protein cereblon/Cyclin-dependent kinase 6 (Mus musculus) (UniProt Q8C7D2+Q64261); experiment: Protac activity at CRBN/CDK6 in mouse B16-F10 cells assessed as induction of CDK4 degradation at 0.05 uM incubated for 24 hrs by Western blot analysis; assay type: cell-based
[29] = target: Protein cereblon/Cyclin-dependent kinase 4 (Mus musculus) (UniProt P30285+Q8C7D2); experiment: Protac activity at CRBN/CDK4 in mouse B16-F10 cells assessed as induction of CDK4 degradation at 0.05 uM incubated for 24 hrs by Western blot analysis; assay type: cell-based
Chain of Protein cereblon/Cyclin-dependent kinase 4 (Mus musculus) (P30285 whole entry, looked up): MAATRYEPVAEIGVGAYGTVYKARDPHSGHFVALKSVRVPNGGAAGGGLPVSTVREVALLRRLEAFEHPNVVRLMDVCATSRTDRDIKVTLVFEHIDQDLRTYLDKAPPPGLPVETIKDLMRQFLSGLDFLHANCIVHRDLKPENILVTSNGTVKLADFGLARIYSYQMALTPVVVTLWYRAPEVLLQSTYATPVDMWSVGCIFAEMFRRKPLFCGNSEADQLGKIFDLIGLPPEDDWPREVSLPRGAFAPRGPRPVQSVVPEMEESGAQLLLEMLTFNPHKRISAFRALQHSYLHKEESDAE
Chain of Protein cereblon/Cyclin-dependent kinase 4 (Mus musculus) (Q8C7D2 whole entry, looked up): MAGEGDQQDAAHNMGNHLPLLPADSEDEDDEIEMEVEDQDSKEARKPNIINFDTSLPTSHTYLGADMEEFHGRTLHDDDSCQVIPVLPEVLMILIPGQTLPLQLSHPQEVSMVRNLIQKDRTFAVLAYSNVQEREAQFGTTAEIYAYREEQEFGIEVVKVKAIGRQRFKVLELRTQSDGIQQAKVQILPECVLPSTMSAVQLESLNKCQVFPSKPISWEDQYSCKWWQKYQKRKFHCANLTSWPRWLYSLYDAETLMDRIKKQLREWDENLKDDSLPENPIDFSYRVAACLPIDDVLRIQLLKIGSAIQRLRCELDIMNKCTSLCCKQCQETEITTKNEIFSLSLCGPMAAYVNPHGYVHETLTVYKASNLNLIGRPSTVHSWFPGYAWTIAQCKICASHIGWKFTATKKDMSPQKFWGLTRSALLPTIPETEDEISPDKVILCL

| Structure (SMILES) | IC50 [1] | Activity [2] | IC50 [3] | Kd [4] | IC50 [5] | EC50 [6] | IC50 [7] | IC50 [8] | EC50 [9] | also measured |
| --- | --- | --- | --- | --- | --- | --- | --- | --- | --- | --- |
| COc1c(C)cnc(Cn2cc(C#CCCNC(=O)CN3CCN(c4ccc(Nc5ncc6c(C)c(C(C)=O)c(=O)n(C7CCCC7)c6n5)nc4)CC3)c3c(Cl)nc(N)nc32)c1C | 607 nM | Non-Toxic | 906 nM | 8.39 nM | 821 nM | 96 nM | > 10000 nM | 547 nM | 88 nM | – |
| COc1c(C)cnc(Cn2cc(C#CCCn3cc(C(=O)NCCOCCOCCNC(=O)CN4CCN(c5ccc(Nc6ncc7c(C)c(C(C)=O)c(=O)n(C8CCCC8)c7n6)nc5)CC4)nn3)c3c(Cl)nc(N)nc32)c1C | 3550 nM | Non-Toxic | 1840 nM | 18.7 nM | 1000 nM | 268 nM | 1140 nM | 2540 nM | 245 nM | – |
| COc1c(C)cnc(Cn2cc(C#CCCn3cc(C(=O)N4CCN(c5ccc(Nc6ncc7c(C)c(C(C)=O)c(=O)n(C8CCCC8)c7n6)nc5)CC4)nn3)c3c(Cl)nc(N)nc32)c1C | 2440 nM | Non-Toxic | 293 nM | 460 nM | 546 nM | 110 nM | > 10000 nM | 1710 nM | 105 nM | – |
| COc1c(C)cnc(Cn2cnc3c(Cl)nc(N)nc32)c1C [BIIB021] | 134 nM | Toxic | 253 nM | – | 176 nM | – | 339 nM | 113 nM | – | Activity [10]: 12.26%; Activity [11]: Non-Toxic; Activity [12]: 2.26%; Activity [13]: 14.09%; Activity [14]: 78.06%; Activity [15]: 68.27%; Activity [16]: 73.13%; Activity [17]: 18.95%; Activity [18]: 12.55%; Activity [19]: 2.03%; Activity [20]: 16.92%; Activity [21]: 2.62%; Activity [22]: 13.64%; LC50 at 72 h [23]: < 1000 nM; Activity [24]: 6.27%; Activity [25]: 77.76% |
| CC(=O)c1c(C)c2cnc(Nc3ccc(N4CCNCC4)cn3)nc2n(C2CCCC2)c1=O [PALBOCICLIB] | > 10000 nM | Non-Toxic | > 10000 nM | – | > 10000 nM | – | > 10000 nM | > 10000 nM | – | Activity [10]: 13.29%; Activity [12]: 2.84%; Activity [13]: 13.57%; Activity [14]: 86.8%; Activity [15]: 89.12%; Activity [16]: 72.84%; Activity [17]: 15.63%; Activity [18]: 5.51%; Activity [19]: 5.34%; Activity [20]: 2.53%; Activity [21]: 9.98%; Activity [22]: 2.55%; LC50 at 72 h [23]: > 100000 nM; Activity [24]: 5.31%; Activity [25]: 74.4% |
| COc1c(C)cnc(Cn2cc(C#CCCn3cc(C(=O)NCCOCCNC(=O)CN4CCN(c5ccc(Nc6ncc7c(C)c(C(C)=O)c(=O)n(C8CCCC8)c7n6)nc5)CC4)nn3)c3c(Cl)nc(N)nc32)c1C | 8890 nM | Non-Toxic | 6340 nM | 306 nM | 7880 nM | > 500 nM | 1850 nM | 3760 nM | 478 nM | – |
| COc1c(C)cnc(Cn2cc(C#CCCn3cc(C(=O)NCCNC(=O)CN4CCN(c5ccc(Nc6ncc7c(C)c(C(C)=O)c(=O)n(C8CCCC8)c7n6)nc5)CC4)nn3)c3c(Cl)nc(N)nc32)c1C | > 10000 nM | Non-Toxic | 7640 nM | 67.5 nM | 6820 nM | 446 nM | 3630 nM | > 10000 nM | 325 nM | – |
| COc1c(C)cnc(Cn2cc(C#CCCn3cc(CNC(=O)CN4CCN(c5ccc(Nc6ncc7c(C)c(C(C)=O)c(=O)n(C8CCCC8)c7n6)nc5)CC4)nn3)c3c(Cl)nc(NC(C)=O)nc32)c1C | – | – | – | – | – | – | – | – | – | Activity [26]: inactive; Activity [27]: inactive |
| CC(=O)c1c(C)c2cnc(Nc3ccc(N4CCN(CCCCNC(=O)COc5cccc6c5C(=O)N(C5CCC(=O)NC5=O)C6=O)CC4)cn3)nc2n(C2CCCC2)c1=O (configuration not stated) | – | – | – | – | – | – | – | – | – | Activity [28]: Active; Activity [29]: Active |
